Assay results: patent publication US11873517B2, “Candida tropicalis strain having improved tolerance to the cytotoxicity of substrates, and method for producing dicarboxylic acid using same” (priority 2018, dated 2024)

Test system: Candida tropicalis MYA_3404 strain
Assay: toxicity test of substrates and product: growth of the strain in YNB medium
Details: 36 hours; for growth of the strain in the medium to which the substance was added, compared to the control: added at 5 g/L to YNB medium, 30° C., 200 rpm, FIG. 1

SMILES | cytotoxicity compared to the sebacic acid (5 g/L in YNB medium) | growth of the strain in the medium to which the substance was added, compared to the control
CCCCCCCCCC(=O)OC [DAME, decanoic acid methyl ester] | stronger cytotoxicity | did not grow
CCCCCCCCCC(=O)O [DA, decanoic acid] |  | did not grow
O=C(O)CCCCCCCCC(=O)O [sebacic acid] |  | the growth rate and the total cell mass of the strain decreased
